One experiment concerns cAMP. Briefly: cAMP Assay (cAMP-Glo) in lung fibroblasts. The following applies: IPF patient-derived fibroblasts, 20 minutes, DHX 10 μM. The format is cell-based, human. Here is the method: cAMP Assay: IPF patient derived fibroblasts were plated in EMEM containing 10% FBS overnight. […] 20 minutes prior to cell lysis media was removed and cells were treated with “induction buffer” containing nonselective phosphodiesterase inhibitors and the indicated concentration of compound(s). Luminescence was measured on a Flexstation 3 (Molecular Devices) plate reader.

The next experiment concerns CTGF, COL1A1, ACTA2, FN1. Briefly: qPCR of profibrotic and matrix remodeling gene expression in IPF patient-derived fibroblasts. The following applies: 2 ng/mL TGFβ and 10 μM DHX, 24 hours. The format is cell-based, human. The protocol: FIGS. 3A-3F DHX reverses fibroblast matrix deposition, contraction and stiffening. 3a. […] Genes which encode Connective tissue growth factor (CTGF), Collagen I (COL1A1), αSMA (ACTA2), and Fibronectin (FN1) are reduced by 24 hour treatment with DHX (10 μM), +/−SCH 39166 (3 μM). N=3 (****p<0.0001, ***p<0.001, *p<0.05 vs. 0.1% DMSO vehicle control) 3b. DHX reverses TGFβ-induced αSMA+ stress fiber formation. IMR-90 cells pre-stimulated with 2 ng/mL TGFβ for 48 hours and then treated with DHX (10 μM)+2 ng/mL TGFβ for an additional 24 hours prior to fixation. Cells which are positive for αSMA were quantified by a blinded investigator and noted in the bottom right corner, a minimum of 300 cells in each experiment were quantified. N=3. 3c. DHX reverses TGFβ-induced extracellular matrix accumulation. […] Cell derived matrix is measured using antibodies for Collagen I and Fibronectin. […] DHX attenuates IPF patient-derived fibroblast contractility measured by traction force microscopy. […] RMS tractions were determined in two independent experiments; box and whisker plots show min to max, quartile, and mean from one representative experiment (****p<0.0001, *p<0.05 vs. 0.1% DMSO vehicle control). […] The matrices were decellularized and passage 3 NHLFs were plated onto the matrices; after 24 hours RNA was collected and expression of profibrotic genes was analyzed. […]
On the technique in general: In qPCR the cycle at which signal appears reflects the starting amount.

For `Oc1cc2c(cc1O)[C@H]1c3ccccc3CN[C@@H]1CC2` (racemic) [Dihydrexidine, dihydrexidine], the cAMP entry in the experiment on cAMP is reported as “elevated cAMP”. For the same compound, the “expression of matrix crosslinking, protease inhibitor and matrix degradation genes” value with CTGF, COL1A1, ACTA2, FN1 is “reversed the effects of TGFβ”.

The values are drawn from patent US20240252463A1, “METHODS OF TREATING FIBROTIC PATHOLOGIES” (Mayo Foundation for Medical Education and Research, priority 2018, published 2024).
